Measured values published in the supplement of paper PMC11061612.

Tests used:
Experiment in all cases: combination Emax (second highest fraction inhibited in the dose matrix, 72 h); higher = more inhibition; extreme values may be limits of the assay
[1] = system: P32-ISH (Burkitt's Lymphoma)
Outline: (§1)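 Cell lines in DMEM/F12 or RPMI with 10% FBS were plated in 1536-well plates, held 24 hours at 37°C, 5% CO2, then given two-drug dose matrices for 72 hours (DMSO typically 0.2%). Viability was read by CellTiter-Glo 2.0 luminescence and scaled as inhibition from 0 (vehicle wells) to 1 (blank wells). Combination Emax is the second-highest inhibition in the matrix; Bliss excess is observed combination effect minus expected EA + EB − EA·EB, EA and EB being single-agent effects.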

[2] = system: IST-MEL1 (Melanoma)
Outline: as §1

[3] = system: ES6 (Ewing's Sarcoma)
Outline: as §1

[4] = system: MOLT-13 (T-Lymphoblastic Leukemia)
Outline: as §1

[5] = system: ZR-75-30 (Breast Carcinoma)
Outline: as §1

[6] = system: TUR (Acute Myeloid Leukemia)
Outline: as §1

[7] = system: WM35 (Melanoma)
Outline: as §1

[8] = system: MONO-MAC-6 (Acute Myeloid Leukemia)
Outline: as §1

[9] = system: NAMALWA (Burkitt's Lymphoma)
Outline: as §1

[10] = system: SK-CO-1 (Colorectal Carcinoma)
Outline: as §1

[11] = system: MOLP-8 (Plasma Cell Myeloma)
Outline: as §1

[12] = system: NCI-H1963 (Small Cell Lung Carcinoma)
Outline: as §1

[13] = system: SNU-407 (Colorectal Carcinoma)
Outline: as §1

[14] = system: COR-L88 (Small Cell Lung Carcinoma)
Outline: as §1

[15] = system: NCI-H2373 (Mesothelioma)
Outline: as §1

[16] = system: BHT-101 (Thyroid Gland Carcinoma)
Outline: as §1

[17] = system: RCC-JW (Kidney Carcinoma)
Outline: as §1

[18] = system: P30-OHK (B-Lymphoblastic Leukemia)
Outline: as §1

[19] = system: KALS-1 (Glioblastoma)
Outline: as §1

C[C@@H](c1ccc2nccn2c1)n1nnc2ncc(-c3cnn(C)c3)nc21 [Savolitinib] + Cc1c2c(nn1C)CSCc1cc(n(C)n1)CSc1cc(c3ccccc3c1)OCCCc1c(C(=O)O)n(C)c3c-2c(Cl)ccc13 [AZD5991] (first compound max 1 µM, 7x7, partner max 1 µM)
combination Emax [1]: 1
combination Emax [2]: 0.104
combination Emax [3]: 0.174
combination Emax [4]: 0.99
combination Emax [5]: 0.248
combination Emax [6]: 0.347
combination Emax [7]: 0.154
combination Emax [8]: 0.997
combination Emax [9]: 0.956
combination Emax [10]: 0.114
combination Emax [11]: 1
combination Emax [12]: 0.192
combination Emax [13]: 0.666
combination Emax [14]: 0.23
combination Emax [15]: 0.133
combination Emax [16]: 0.133
combination Emax [17]: 0.106
combination Emax [18]: 0.683
combination Emax [19]: 0.186

Cc1nc(Nc2ncc(C(=O)Nc3c(C)cccc3Cl)s2)cc(N2CCN(CCO)CC2)n1 [Dasatinib] + CC(=O)Nc1cccc(-n2c(=O)n(C3CC3)c(=O)c3c(Nc4ccc(I)cc4F)n(C)c(=O)c(C)c32)c1 [Trametinib] (first compound max 2 µM, 7x7, partner max 1 µM)
combination Emax [1]: 0.411
combination Emax [2]: 0.793
combination Emax [3]: 0.439
combination Emax [4]: 0.559
combination Emax [5]: 0.0302
combination Emax [6]: 0.308
combination Emax [7]: 0.837
combination Emax [8]: 0.589
combination Emax [9]: 0.407
combination Emax [10]: 0.994
combination Emax [11]: 0.621
combination Emax [12]: 0.38
combination Emax [13]: 0.756
combination Emax [14]: 0.2
combination Emax [15]: 0.391
combination Emax [16]: 0.998
combination Emax [17]: 0.859
combination Emax [18]: 0.202
combination Emax [19]: 0.917

NC1(C(=O)N[C@@H](CCO)c2ccc(Cl)cc2)CCN(c2ncnc3[nH]ccc23)CC1 [Capivasertib] + COc1nnc2ccc(N3CCC(c4ccc(OCCN5CCN(C)C(=O)[C@H]5C)cc4)CC3)nn12 [AZD5153] (first compound max 10 µM, 7x7, partner max 1 µM)
combination Emax [1]: 1
combination Emax [2]: 0.451
combination Emax [3]: 0.518
combination Emax [4]: 0.873
combination Emax [5]: 0.353
combination Emax [6]: 1
combination Emax [7]: 0.538
combination Emax [8]: 1
combination Emax [9]: 0.961
combination Emax [10]: 0.438
combination Emax [11]: 1
combination Emax [12]: 0.767
combination Emax [13]: 0.882
combination Emax [14]: 0.496
combination Emax [15]: 0.591
combination Emax [16]: 0.759
combination Emax [17]: 0.601
combination Emax [18]: 1
combination Emax [19]: 0.682

C[C@@H](c1ccc2nccn2c1)n1nnc2ncc(-c3cnn(C)c3)nc21 [Savolitinib] + CC1(C)CCC(CN2CCN(c3ccc(C(=O)NS(=O)(=O)c4ccc(NCC5CCOCC5)c([N+](=O)[O-])c4)c(Oc4cnc5[nH]ccc5c4)c3)CC2)=C(c2ccc(Cl)cc2)C1 [Venetoclax] (first compound max 1 µM, 7x7, partner max 1 µM)
combination Emax [1]: 0.0681
combination Emax [2]: 0.124
combination Emax [3]: 0.179
combination Emax [4]: 0.467
combination Emax [5]: 0.127
combination Emax [6]: 0.0127
combination Emax [7]: 0.162
combination Emax [8]: 0.213
combination Emax [9]: 0.213
combination Emax [10]: 0.0828
combination Emax [11]: 0.0876
combination Emax [12]: 0.422
combination Emax [13]: 0.231
combination Emax [14]: 0.207
combination Emax [15]: 0.138
combination Emax [16]: 0.14
combination Emax [17]: 0.124
combination Emax [18]: 0.163
combination Emax [19]: 0.113

COc1nnc2ccc(N3CCC(c4ccc(OCCN5CCN(C)C(=O)[C@H]5C)cc4)CC3)nn12 [AZD5153] + Cc1c2c(nn1C)CSCc1cc(n(C)n1)CSc1cc(c3ccccc3c1)OCCCc1c(C(=O)O)n(C)c3c-2c(Cl)ccc13 [AZD5991] (first compound max 1 µM, 7x7, partner max 1 µM)
combination Emax [1]: 1
combination Emax [2]: 0.242
combination Emax [3]: 0.45
combination Emax [4]: 1
combination Emax [5]: 0.29
combination Emax [6]: 0.998
combination Emax [7]: 0.798
combination Emax [8]: 1
combination Emax [9]: 0.966
combination Emax [10]: 0.403
combination Emax [11]: 1
combination Emax [12]: 0.89
combination Emax [13]: 0.977
combination Emax [14]: 0.807
combination Emax [15]: 0.381
combination Emax [16]: 0.84
combination Emax [17]: 0.3
combination Emax [18]: 1
combination Emax [19]: 0.814

CS(=O)(=O)CCNCc1ccc(-c2ccc3ncnc(Nc4ccc(OCc5cccc(F)c5)c(Cl)c4)c3c2)o1 [Lapatinib] + C[C@@H](Oc1cc(-c2cnn(C3CCNCC3)c2)cnc1N)c1c(Cl)ccc(F)c1Cl [Crizotinib] (first compound max 10 µM, 7x7, partner max 10 µM)
combination Emax [1]: 1
combination Emax [2]: 0.811
combination Emax [3]: 0.953
combination Emax [4]: 0.853
combination Emax [5]: 0.83
combination Emax [6]: 0.59
combination Emax [7]: 0.88
combination Emax [8]: 0.951
combination Emax [9]: 0.942
combination Emax [10]: 0.94
combination Emax [11]: 0.978
combination Emax [12]: 0.966
combination Emax [13]: 0.966
combination Emax [14]: 0.57
combination Emax [15]: 0.559
combination Emax [16]: 0.98
combination Emax [17]: 0.976
combination Emax [18]: 0.972
combination Emax [19]: 0.801

CC(=O)c1c(C)c2cnc(Nc3ccc(N4CCNCC4)cn3)nc2n(C2CCCC2)c1=O [Palbociclib] + Cn1cnc2c(F)c(Nc3ccc(Br)cc3Cl)c(C(=O)NOCCO)cc21 [Selumetinib] (first compound max 10 µM, 7x7, partner max 10 µM)
combination Emax [1]: 0.699
combination Emax [2]: 0.401
combination Emax [3]: 0.349
combination Emax [4]: 0.721
combination Emax [5]: 0
combination Emax [6]: 0.379
combination Emax [7]: 0.718
combination Emax [8]: 0.669
combination Emax [9]: 0.595
combination Emax [10]: 0.858
combination Emax [11]: 0.553
combination Emax [12]: 0.456
combination Emax [13]: 0.654
combination Emax [14]: 0.223
combination Emax [15]: 0.354
combination Emax [16]: 0.813
combination Emax [17]: 0.239
combination Emax [18]: 0.408
combination Emax [19]: 0.432

NC1(C(=O)N[C@@H](CCO)c2ccc(Cl)cc2)CCN(c2ncnc3[nH]ccc23)CC1 [Capivasertib] + Cn1cnc2c(F)c(Nc3ccc(Br)cc3Cl)c(C(=O)NOCCO)cc21 [Selumetinib] (first compound max 10 µM, 7x7, partner max 10 µM)
combination Emax [1]: 0.489
combination Emax [2]: 0.584
combination Emax [3]: 0.434
combination Emax [4]: 0.555
combination Emax [5]: 0.501
combination Emax [6]: 0.924
combination Emax [7]: 0.782
combination Emax [8]: 0.847
combination Emax [9]: 0.387
combination Emax [10]: 0.886
combination Emax [11]: 0.715
combination Emax [12]: 0.492
combination Emax [13]: 0.767
combination Emax [14]: 0.257
combination Emax [15]: 0.664
combination Emax [16]: 0.902
combination Emax [17]: 0.369
combination Emax [18]: 0.186
combination Emax [19]: 0.61

COc1nnc2ccc(N3CCC(c4ccc(OCCN5CCN(C)C(=O)[C@H]5C)cc4)CC3)nn12 [AZD5153] + C[C@@H]1COCCN1C2=NC(=NC(=C2)C3(CC3)[S@](=N)(=O)C)C4=C5C=CNC5=NC=C4 [AZD6738] (first compound max 1 µM, 7x7, partner max 10 µM)
combination Emax [1]: 0.957
combination Emax [2]: 0.789
combination Emax [3]: 0.585
combination Emax [4]: 1
combination Emax [5]: 0.34
combination Emax [6]: 0.984
combination Emax [7]: 0.731
combination Emax [8]: 1
combination Emax [9]: 0.914
combination Emax [10]: 0.714
combination Emax [11]: 0.987
combination Emax [12]: 0.91
combination Emax [13]: 0.958
combination Emax [14]: 0.548
combination Emax [15]: 0.565
combination Emax [16]: 0.816
combination Emax [17]: 0.527
combination Emax [18]: 1
combination Emax [19]: 0.812

COc1cc2ncnc(Nc3ccc(F)c(Cl)c3)c2cc1OCCCN1CCOCC1 [Gefitinib] + CC(C)n1c(=O)n(C)c2cnc3cc(F)c(-c4ccc(OCCCN5CCCCC5)nc4)cc3c21 [AZD1390] (first compound max 10 µM, 7x7, partner max 0.3 µM)
combination Emax [1]: 0.333
combination Emax [2]: 0.0683
combination Emax [3]: 0.194
combination Emax [4]: 0.311
combination Emax [5]: 0.446
combination Emax [6]: 0.293
combination Emax [7]: 0.0767
combination Emax [8]: 0.42
combination Emax [9]: 0.214
combination Emax [10]: 0.241
combination Emax [11]: 0.413
combination Emax [12]: 0.062
combination Emax [13]: 0.168
combination Emax [14]: 0.21
combination Emax [15]: 0.119
combination Emax [16]: 0.255
combination Emax [17]: 0.226
combination Emax [18]: 0.173
combination Emax [19]: 0.127

NC1(C(=O)N[C@@H](CCO)c2ccc(Cl)cc2)CCN(c2ncnc3[nH]ccc23)CC1 [Capivasertib] + CCN(CCO)CCCOc1ccc2c(Nc3cc(CC(=O)Nc4cccc(F)c4)[nH]n3)ncnc2c1 [AZD2811] (first compound max 10 µM, 7x7, partner max 1 µM)
combination Emax [1]: 0.951
combination Emax [2]: 0.459
combination Emax [3]: 0.418
combination Emax [4]: 0.992
combination Emax [5]: 0.442
combination Emax [6]: 0.912
combination Emax [7]: 0.328
combination Emax [8]: 0.817
combination Emax [9]: 0.713
combination Emax [10]: 0.64
combination Emax [11]: 0.583
combination Emax [12]: 0.93
combination Emax [13]: 0.714
combination Emax [14]: 0.253
combination Emax [15]: 0.491
combination Emax [16]: 0.353
combination Emax [17]: 0.358
combination Emax [18]: 0.886
combination Emax [19]: 0.495

Cn1cnc2c(F)c(Nc3ccc(Br)cc3Cl)c(C(=O)NOCCO)cc21 [Selumetinib] + C[C@@H]1COCCN1C2=NC(=NC(=C2)C3(CC3)[S@](=N)(=O)C)C4=C5C=CNC5=NC=C4 [AZD6738] (first compound max 10 µM, 7x7, partner max 10 µM)
combination Emax [1]: 0.918
combination Emax [2]: 0.74
combination Emax [3]: 0.367
combination Emax [4]: 1
combination Emax [5]: 0.111
combination Emax [6]: 0.934
combination Emax [7]: 0.767
combination Emax [8]: 0.931
combination Emax [9]: 0.918
combination Emax [10]: 0.808
combination Emax [11]: 0.832
combination Emax [12]: 0.855
combination Emax [13]: 0.758
combination Emax [14]: 0.494
combination Emax [15]: 0.463
combination Emax [16]: 0.883
combination Emax [17]: 0.386
combination Emax [18]: 0.889
combination Emax [19]: 0.681

Cn1cnc2c(F)c(Nc3ccc(Br)cc3Cl)c(C(=O)NOCCO)cc21 [Selumetinib] + CC(C)n1c(=O)n(C)c2cnc3cc(F)c(-c4ccc(OCCCN5CCCCC5)nc4)cc3c21 [AZD1390] (first compound max 10 µM, 7x7, partner max 0.3 µM)
combination Emax [1]: 0.101
combination Emax [2]: 0.289
combination Emax [3]: 0.147
combination Emax [4]: 0.456
combination Emax [5]: 0.0506
combination Emax [6]: 0.272
combination Emax [7]: 0.65
combination Emax [8]: 0.231
combination Emax [9]: 0.136
combination Emax [10]: 0.776
combination Emax [11]: 0.325
combination Emax [12]: 0.303
combination Emax [13]: 0.507
combination Emax [14]: 0.198
combination Emax [15]: 0.298
combination Emax [16]: 0.791
combination Emax [17]: 0.0923
combination Emax [18]: 0.217
combination Emax [19]: 0.405
